Earlier results as cited in publication PMC7347157 (Chemical communications (Cambridge, England), 2019).

Conditions: unlabeled dienophile

Row | Compound | log P
1 | OC1CC/C=C/CCC1 (stereo not drawn) [5-hydroxy-trans-cyclooctene] | 1.11
2 | trans-5-oxocene [compound 4] | 0.51
